Assay results from ChEMBL document CHEMBL1201862, “PubChem BioAssay data set” (2004).
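Five concentrations, 48 hours, 96-well plates. Here, GI50 denotes the concentration required for 50% inhibition of growth.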 The source made the active and inactive calls. Rule as the data show it: active = GI50 up to about 1.1 µM and inactive = higher.

Columns and labels:
Assay in all cases: inhibition of tumour cell growth, NCI panel, 48 h
CCRF-CEM = system: CCRF-CEM
COLO 205 = system: COLO 205
EKVX = system: EKVX
HCT-15 = system: HCT-15
LOX IMVI = system: LOX IMVI
MOLT-4 = system: MOLT-4
NCI-H23 = system: NCI-H23
OVCAR-4 = system: OVCAR-4
RXF 393 = system: RXF 393
SF-295 = system: SF-295
SK-MEL-28 = system: SK-MEL-28
UACC-62 = system: UACC-62
OVCAR-3 = system: OVCAR-3

For `S=C1ON=C(c2ccccc2)/C1=C/Nc1ccccc1`, the GI50 (CCRF-CEM) was > 100 µM (inactive), the GI50 (COLO 205) was > 100 µM (inactive) and the GI50 (EKVX) was > 100 µM (inactive). The GI50 (HCT-15) was 78.9 µM, the GI50 (LOX IMVI) was > 100 µM (inactive) and the GI50 (MOLT-4) was > 100 µM (inactive). The GI50 (NCI-H23) was > 100 µM (inactive), the GI50 (OVCAR-4) was 9.62 µM (inactive) and the GI50 (RXF 393) was 94.8 µM (inactive). The GI50 (SF-295) was > 100 µM (inactive), the GI50 (SK-MEL-28) was > 100 µM (inactive) and the GI50 (UACC-62) was 3.24 µM (inactive).

With `O=c1c(C(c2ccc([N+](=O)[O-])cc2)c2c(O)c3ccccc3n(-c3ccccc3)c2=O)c(O)c2ccccc2n1-c1ccccc1` the GI50 (CCRF-CEM) was 1.51 µM (inactive), the GI50 (COLO 205) was 23.2 µM (inactive) and the GI50 (EKVX) was 24.5 µM (inactive). The GI50 (HCT-15) was 10.1 µM, the GI50 (LOX IMVI) was 11.8 µM (inactive) and the GI50 (MOLT-4) was 2.7 µM (inactive). For the same compound, the GI50 (NCI-H23) was 11.2 µM (inactive), the GI50 (OVCAR-3) was 24.1 µM (inactive) and the GI50 (OVCAR-4) was 59.7 µM (inactive). The GI50 (RXF 393) was 14.4 µM (inactive), the GI50 (SF-295) was 12.5 µM (inactive) and the GI50 (SK-MEL-28) was 16.5 µM (inactive). The GI50 (UACC-62) was 3.76 µM (inactive).

In the case of `CNC(C)(C)Cc1ccc(Cl)cc1`, the GI50 (CCRF-CEM) was > 100 µM (inactive), the GI50 (COLO 205) was > 100 µM (inactive) and the GI50 (EKVX) was > 100 µM (inactive). The GI50 (LOX IMVI) was > 100 µM (inactive), the GI50 (MOLT-4) was > 100 µM (inactive) and the GI50 (NCI-H23) was > 100 µM (inactive). For the same compound, the GI50 (OVCAR-3) was > 100 µM (inactive), the GI50 (OVCAR-4) was > 100 µM (inactive) and the GI50 (RXF 393) was > 100 µM (inactive). The GI50 (SF-295) was > 100 µM (inactive), the GI50 (SK-MEL-28) was > 100 µM (inactive) and the GI50 (UACC-62) was > 100 µM (inactive).

With `CC(C)C(C(=O)O)N(CC1(O)OCC(O)C(O)C1O)N=O` (centres undefined) the GI50 (CCRF-CEM) was > 100 µM (inactive), the GI50 (COLO 205) was > 100 µM (inactive) and the GI50 (EKVX) was > 100 µM (inactive). The GI50 (LOX IMVI) was > 100 µM (inactive), the GI50 (MOLT-4) was > 100 µM (inactive) and the GI50 (NCI-H23) was > 100 µM (inactive). For the same compound, the GI50 (OVCAR-3) was > 100 µM (inactive), the GI50 (RXF 393) was > 100 µM (inactive) and the GI50 (SK-MEL-28) was > 100 µM (inactive). For the same compound, the GI50 (UACC-62) was > 100 µM (inactive).

`CSc1nc2c(nc(N)n2C2OC(COC(C)=O)C(OC(C)=O)C(OC(C)=O)C2OC(C)=O)c(=O)n1C` (centres undefined) was tested, and the GI50 (CCRF-CEM) was > 100 µM (inactive), the GI50 (COLO 205) was > 100 µM (inactive) and the GI50 (EKVX) was > 100 µM (inactive). For the same compound, the GI50 (HCT-15) was > 100 µM, the GI50 (LOX IMVI) was > 100 µM (inactive) and the GI50 (MOLT-4) was > 100 µM (inactive). For the same compound, the GI50 (NCI-H23) was > 100 µM (inactive), the GI50 (OVCAR-3) was > 100 µM (inactive) and the GI50 (OVCAR-4) was > 100 µM (inactive). The GI50 (RXF 393) was > 100 µM (inactive), the GI50 (SF-295) was > 100 µM (inactive) and the GI50 (UACC-62) was > 100 µM (inactive).

`CC(=O)OCCOCNC(=S)N/N=C/c1cc(Br)cs1` was tested, and the GI50 (CCRF-CEM) was > 100 µM (inactive), the GI50 (COLO 205) was > 100 µM (inactive) and the GI50 (EKVX) was > 100 µM (inactive). The GI50 (HCT-15) was > 100 µM, the GI50 (LOX IMVI) was > 100 µM (inactive) and the GI50 (MOLT-4) was > 100 µM (inactive). For the same compound, the GI50 (NCI-H23) was > 100 µM (inactive), the GI50 (OVCAR-3) was > 100 µM (inactive) and the GI50 (OVCAR-4) was > 100 µM (inactive). The GI50 (RXF 393) was > 100 µM (inactive), the GI50 (SF-295) was > 100 µM (inactive) and the GI50 (SK-MEL-28) was > 100 µM (inactive). The GI50 (UACC-62) was > 100 µM (inactive).

`Cc1cc(N(CCC#N)S(=O)(=O)c2ccccc2)ccc1C=O` was tested, and the GI50 (CCRF-CEM) was > 100 µM (inactive), the GI50 (COLO 205) was > 100 µM (inactive) and the GI50 (EKVX) was > 100 µM (inactive). The GI50 (HCT-15) was > 100 µM, the GI50 (LOX IMVI) was > 100 µM (inactive) and the GI50 (MOLT-4) was > 100 µM (inactive). The GI50 (NCI-H23) was > 100 µM (inactive), the GI50 (OVCAR-3) was > 100 µM (inactive) and the GI50 (OVCAR-4) was > 100 µM (inactive). For the same compound, the GI50 (RXF 393) was > 100 µM (inactive), the GI50 (SF-295) was > 100 µM (inactive) and the GI50 (SK-MEL-28) was > 100 µM (inactive). The GI50 (UACC-62) was > 100 µM (inactive).

`O=C(CC(=O)c1cccc2ccccc12)C(=O)Nc1nccs1` was tested, and the GI50 (CCRF-CEM) was > 100 µM (inactive), the GI50 (COLO 205) was > 100 µM (inactive) and the GI50 (EKVX) was > 100 µM (inactive). The GI50 (HCT-15) was > 100 µM, the GI50 (LOX IMVI) was > 100 µM (inactive) and the GI50 (MOLT-4) was > 100 µM (inactive). For the same compound, the GI50 (NCI-H23) was > 100 µM (inactive), the GI50 (OVCAR-3) was > 100 µM (inactive) and the GI50 (OVCAR-4) was > 100 µM (inactive). The GI50 (RXF 393) was > 100 µM (inactive), the GI50 (SF-295) was > 100 µM (inactive) and the GI50 (SK-MEL-28) was > 100 µM (inactive). The GI50 (UACC-62) was > 100 µM (inactive).

In the case of `Clc1ccc2c(c1)-c1c3c(nn1-c1ccccc1)-c1ccccc1SC3O2` (centres undefined), the GI50 (CCRF-CEM) was 44.9 µM (inactive), the GI50 (COLO 205) was > 100 µM (inactive) and the GI50 (EKVX) was > 100 µM (inactive). For the same compound, the GI50 (LOX IMVI) was 71.3 µM (inactive), the GI50 (MOLT-4) was > 100 µM (inactive) and the GI50 (NCI-H23) was > 100 µM (inactive). For the same compound, the GI50 (OVCAR-3) was > 100 µM (inactive), the GI50 (RXF 393) was > 100 µM (inactive) and the GI50 (SF-295) was > 100 µM (inactive). For the same compound, the GI50 (SK-MEL-28) was > 100 µM (inactive).

With `NC1CCC2(O)c3ccccc3C2C1` (centres undefined) the GI50 (CCRF-CEM) was > 100 µM (inactive), the GI50 (COLO 205) was > 100 µM (inactive) and the GI50 (EKVX) was > 100 µM (inactive). The GI50 (HCT-15) was > 100 µM, the GI50 (LOX IMVI) was > 100 µM (inactive) and the GI50 (MOLT-4) was > 100 µM (inactive). For the same compound, the GI50 (NCI-H23) was > 100 µM (inactive), the GI50 (OVCAR-4) was > 100 µM (inactive) and the GI50 (RXF 393) was > 100 µM (inactive). For the same compound, the GI50 (SF-295) was > 100 µM (inactive), the GI50 (SK-MEL-28) was > 100 µM (inactive) and the GI50 (UACC-62) was > 100 µM (inactive).

For `Cc1ccc(/N=N/c2c(C)nn(-c3ccccc3)c2-c2ccccc2)c(Br)c1`, the GI50 (CCRF-CEM) was 21 µM (inactive), the GI50 (EKVX) was > 100 µM (inactive) and the GI50 (HCT-15) was 28.2 µM. The GI50 (LOX IMVI) was 37.2 µM (inactive), the GI50 (MOLT-4) was 8.15 µM (inactive) and the GI50 (OVCAR-3) was > 100 µM (inactive). The GI50 (OVCAR-4) was > 100 µM (inactive), the GI50 (SF-295) was 86.5 µM (inactive) and the GI50 (SK-MEL-28) was > 100 µM (inactive). The GI50 (UACC-62) was 40 µM (inactive).

With `CC1C=CC(C)C2(O)C(=O)NC(O)C12` (centres undefined) the GI50 (CCRF-CEM) was > 100 µM (inactive), the GI50 (COLO 205) was > 100 µM (inactive) and the GI50 (EKVX) was > 100 µM (inactive). The GI50 (HCT-15) was > 100 µM, the GI50 (MOLT-4) was > 100 µM (inactive) and the GI50 (OVCAR-4) was > 100 µM (inactive). The GI50 (RXF 393) was > 100 µM (inactive), the GI50 (SK-MEL-28) was > 100 µM (inactive) and the GI50 (UACC-62) was > 100 µM (inactive).
